The nature of this series: Relative thermodynamic stability of crystalline forms of compound (Ia) monohydrochloride. Particulars: Form 2 versus Form 1 (form of WO 2004/106279). The class given is physicochemical. An excerpt: Such methods can be used to provide seeds of Form 2 material.

Each structure is given as a SMILES string. Counter-ions that a name gives are not always drawn.

This is an account of results in patent US7846973B2, “Chemical process and new crystalline form” (Theravance, Inc., priority 2004, dated 2010).

For the molecule `O=CNc1cc([C@@H](O)CNCCc2ccc(NC[C@H](O)c3ccccc3)cc2)ccc1O` [Form 2, N-{2-[4-((R)-2-hydroxy-2-phenylethylamino)phenyl]ethyl}-(R)-2-hydroxy-2-(3-formamido-4-hydroxyphenyl)ethylamine monohydrochloride], the “thermodynamic stability of Form 2 crystals compared with Form 1 crystals” value is “more thermodynamically stable”.
